{"source": "patent US11612656B2", "about": "“Use of small molecule based on indotricarbocyanine structure in preparation of medicines for tumor photothermal therapy” (Nanjing Nuoyuan Medical Devices Co., LTD., priority 2021, dated 2023)", "origin": "cited, not measured here", "conditions": "free ICG 20 μg/ml, light irradiation at power density 1 W/cm^2"}
{"compound": "CC1(C)C(/C=C/C=C/C=C/C=C2/N(CCCCS(=O)(=O)O)c3ccc4ccccc4c3C2(C)C)=[N+](CCCCS(=O)(=O)O)c2ccc3ccccc3c21.[Na+]", "note": "[ICG, Indocyanine green]", "values": [{"measurement": "photothermal conversion efficiency (PTCE)", "value": 15.1, "unit": "%"}]}
